Results reported in publication PMC9272937, “Anti-breast cancer sinomenine derivatives via mechanisms of apoptosis induction and metastasis reduction” (Journal of Enzyme Inhibition and Medicinal Chemistry, 2022).
Like-named read-outs stand apart in the source and are kept apart here.

How the values were obtained:
[1] = tested on: human lung cancer cell line A549; test: CCK-8 antiproliferative assay, A549; assay type: cell-based; details: CCK-8, 48 h, mean ± SD of three experiments
Description: (§1) The antiproliferative activities of target compounds were examined by CCK-8 assay in three cancer cells (human lung cancer cell line A549, human mammary gland tumour cell line MCF-7 and human TNBC cell line MDA-MB-231) and one normal cell (human normal breast cell line MCF10A). All cell lines were sourced from KeyGEN Biotech, […], China, and a standard DMEM medium was applied to all cell cultures then subjected to 24 h incubation at 37 °C in a humidified environment with 5% CO2. After that logarithmic growing cells were plated on 96-well plates with 8,000 cells per well in a […] medium for 24 h incubation at 37 °C with 5% CO2. The DMEM medium with bovine serum was removed from each well. Then, prerequisite target compounds and positive controls were added to different cell lines in a predetermined concentration regiment for 48 h culture.

[2] = tested on: human mammary gland tumour cell line MCF-7; test: CCK-8 antiproliferative assay, MCF-7; assay type: cell-based; details: for IC50: Homo sapiens, read-out: IC50 MCF-7; for SI MCF-7 (selectivity index): SI = IC50(MCF-10A)/IC50(MCF-7)
Description: as §1

[3] = tested on: human TNBC cell line MDA-MB-231; test: CCK-8 antiproliferative assay, MDA-MB-231; assay type: cell-based; details: for IC50: Homo sapiens, read-out: IC50 MDA-MB-231; for SI MDA-MB-231 (selectivity index): SI = IC50(MCF-10A)/IC50(MDA-MB-231)
Description: as §1

[4] = tested on: human normal breast cell line MCF10A; test: CCK-8 assay, normal cells MCF10A; assay type: cell-based; details: MCF-10A, CCK-8, 48 h, mean ± SD of three experiments
Description: as §1

[5] = Griess assay, NO-releasing capacity; details: 10^−4 mol/l compound, L-cysteine, 37 °C; for NO peak releasing: 15-180 min
Description: The NO-releasing capacity of each target compound was determined by the colorimetric method under the instructions of the manufacturer. Preparation of standard curves of 0, 1.56, 3.13, 6.25, 12.5, 25, 50 and 100 μmol/L nitrite nitrogen series standard solution was prepared. 50 μL to 96-well plate was added respectively and then mixed with 50 μL Griess I and Griess II; the absorption value was measured at 540 nm wavelength. A standard curve was drawn from the obtained data. Compounds were formulated into 10^−4 mol/l with PBS (pH = 7.4) and pharmaceutical DMSO. The newly formulated L-cysteine solution 100 μL ([…]) was added and incubated at 37 °C for 15, 30, 45, 60, 90, 120, 150 and180 min, respectively. Griess I and II recovered to room temperature, 50 μL of compounds 7A–E(a–c) were added respectively into the 96-well plate, and then 50 μL of Griess I and 50 μL of Griess II were added in sequence, with the absorbance tested at 540 nm. The amount of NO released was then calculated according to the standard curve.

Row | IC50 ([2]; MCF7, CCK-8, 48 h, mean ± SD of three experiments) [µM] | IC50 ([3]; MDA-MB-231, CCK-8, 48 h, mean ± SD of three experiments) [µM] | SMILES | IC50 ([1]; Homo sapiens, A549) [µM] | IC50 ([2]; MCF7, 48 h) [µM] | SI MCF-7 (selectivity index) [2] | IC50 ([3]; MDA-MB-231, 48 h) [µM] | SI MDA-MB-231 (selectivity index) [3] | IC50 [4] [µM] | NO peak releasing [5] | NO release at 180 min ([5]; 180 min) [µmol/L] | IC50 [1] [µM]
1 |  |  | COC1=CC2[C@H]3Cc4ccc(OC)c(OC(=O)CCC(=O)OCCOc5no[n+]([O-])c5S(=O)(=O)c5ccccc5)c4[C@@]2(CCN3C)CC1=O (stereo partly drawn) [7Aa, 4–(2-((4-(((4bs,9R)-3,7-Dimethoxy-11-methyl-6-oxo-6,8a,9,10-tetrahydro-5H-9,4b-(epiminoethano)phenanthren-4-yl)oxy)-4-oxobutanoyl)oxy)ethoxy)-3-(phenylsulfonyl)-1,2,5-oxadiazole 2-oxide] | 15.2 ± 1.37 | 26.4 ± 1.25 | >1.89 | 31.5 ± 2.77 | >1.58 | > 50 | exceeding 40 μmol/L |  | 
2 |  |  | COC1=CC2[C@H]3Cc4ccc(OC)c(OC(=O)CCCC(=O)OCCOc5no[n+]([O-])c5S(=O)(=O)c5ccccc5)c4[C@@]2(CCN3C)CC1=O (stereo partly drawn) [7Ab, 4–(2-((5-(((4bs,9R)-3,7-Dimethoxy-11-methyl-6-oxo-6,8a,9,10-tetrahydro-5H-9,4b-(epiminoethano)phenanthren-4-yl)oxy)-5-oxopentanoyl)oxy)ethoxy)-3-(phenylsulfonyl)-1,2,5-oxadiazole 2-oxide] | 9.41 ± 0.68 | 15.3 ± 0.94 | >3.27 | 29.6 ± 1.8 | >1.69 | > 50 |  |  | 
3 |  |  | COC1=CC2[C@H]3Cc4ccc(OC)c(OC(=O)c5ccccc5C(=O)OCCOc5no[n+]([O-])c5S(=O)(=O)c5ccccc5)c4[C@@]2(CCN3C)CC1=O (stereo partly drawn) [7Ac, 4–(2-((2-((((4bs,9R)-3,7-Dimethoxy-11-methyl-6-oxo-6,8a,9,10-tetrahydro-5H-9,4b-(epiminoethano)phenanthren-4-yl)oxy)carbonyl)benzoyl)oxy)ethoxy)-3-(phenylsulfonyl)-1,2,5-oxadiazole 2-oxide] | 2.33 ± 0.15 | 5.87 ± 0.42 | 3.67 | 1.62 ± 0.15 | 13.30 | 21.5 ± 0.88 | exceeding 40 μmol/L |  | 
4 |  |  | COC1=CC2C3Cc4ccc(OC)c(OC(=O)CCC(=O)OCCCOc5no[n+]([O-])c5S(=O)(=O)c5ccccc5)c4C2(CCN3C)CC1=O (stereo not shown) [7Ba] | 9.84 ± 0.47 | 19 ± 1.33 | >2.64 | 24.2 ± 1.97 | >2.06 | > 50 |  | 68.4 | 
5 |  |  | COC1=CC2[C@H]3Cc4ccc(OC)c(OC(=O)CCCC(=O)OCCCOc5no[n+]([O-])c5S(=O)(=O)c5ccccc5)c4[C@@]2(CCN3C)CC1=O (stereo partly drawn) [7Bb, 4–(3-((5-(((4bs,9R)-3,7-Dimethoxy-11-methyl-6-oxo-6,8a,9,10-tetrahydro-5H-9,4b-(epiminoethano)phenanthren-4-yl)oxy)-5-oxopentanoyl)oxy)propoxy)-3-(phenylsulfonyl)-1,2,5-oxadiazole 2-oxide] | 4.91 ± 0.3 | 19.7 ± 1.28 | >2.54 | 16.4 ± 1.55 | >3.04 | > 50 |  |  | 
6 |  |  | COC1=CC2[C@H]3Cc4ccc(OC)c(OC(=O)c5ccccc5C(=O)OCCCOc5no[n+]([O-])c5S(=O)(=O)c5ccccc5)c4[C@@]2(CCN3C)CC1=O (stereo partly drawn) [7Bc, 4–(3-((2-((((4bs,9R)-3,7-Dimethoxy-11-methyl-6-oxo-6,8a,9,10-tetrahydro-5H-9,4b-(epiminoethano)phenanthren-4-yl)oxy)carbonyl)benzoyl)oxy)propoxy)-3-(phenylsulfonyl)-1,2,5-oxadiazole 2-oxide] | 5.05 ± 0.21 | 12.2 ± 0.92 | >4.11 | 18.7 ± 0.61 | >2.67 | > 50 |  |  | 
7 |  |  | COC1=CC2[C@H]3Cc4ccc(OC)c(OC(=O)CCC(=O)OCCCCOc5no[n+]([O-])c5S(=O)(=O)c5ccccc5)c4[C@@]2(CCN3C)CC1=O (stereo partly drawn) [7Ca, 4–(4-((4-(((4bs,9R)-3,7-Dimethoxy-11-methyl-6-oxo-6,8a,9,10-tetrahydro-5H-9,4b-(epiminoethano)phenanthren-4-yl)oxy)-4-oxobutanoyl)oxy)butoxy)-3-(phenylsulfonyl)-1,2,5-oxadiazole 2-oxide] | 2.97 ± 0.14 | 2.55 ± 0.14 | 15.95 | 2.26 ± 0.19 | 18 | 40.7 ± 2.79 | exceeding 40 μmol/L |  | 
8 |  |  | COC1=CC2[C@H]3Cc4ccc(OC)c(OC(=O)CCCC(=O)OCCCCOc5no[n+]([O-])c5S(=O)(=O)c5ccccc5)c4[C@@]2(CCN3C)CC1=O (stereo partly drawn) [7Cb, 4–(4-((5-(((4bs,9R)-3,7-Dimethoxy-11-methyl-6-oxo-6,8a,9,10-tetrahydro-5H-9,4b-(epiminoethano)phenanthren-4-yl)oxy)-5-oxopentanoyl)oxy)butoxy)-3-(phenylsulfonyl)-1,2,5-oxadiazole 2-oxide] | 3.53 ± 0.29 | 4.68 ± 0.39 | 7.84 | 1.47 ± 0.14 | 24.97 | 36.7 ± 1.02 |  |  | 
9 |  |  | COC1=CC2[C@H]3Cc4ccc(OC)c(OC(=O)CCCC(=O)OCCCCCOc5no[n+]([O-])c5S(=O)(=O)c5ccccc5)c4[C@@]2(CCN3C)CC1=O (stereo partly drawn) [7Db, 4-((5-((5-(((4bs,9R)-3,7-Dimethoxy-11-methyl-6-oxo-6,8a,9,10-tetrahydro-5H-9,4b-(epiminoethano)phenanthren-4-yl)oxy)-5-oxopentanoyl)oxy)pentyl)oxy)-3-(phenylsulfonyl)-1,2,5-oxadiazole 2-oxide] | 3.92 ± 0.31 | 2.94 ± 0.27 | 13.43 | 3.11 ± 0.22 | 12.69 | 39.5 ± 2.9 |  |  | 
10 |  |  | COC1=CC2[C@H]3Cc4ccc(OC)c(OC(=O)CCC(=O)OCCCCCCOc5no[n+]([O-])c5S(=O)(=O)c5ccccc5)c4[C@@]2(CCN3C)CC1=O (stereo partly drawn) [7Ea, 4-((6-((4-(((4bs,9R)-3,7-Dimethoxy-11-methyl-6-oxo-6,8a,9,10-tetrahydro-5H-9,4b-(epiminoethano)phenanthren-4-yl)oxy)-4-oxobutanoyl)oxy)hexyl)oxy)-3-(phenylsulfonyl)-1,2,5-oxadiazole 2-oxide] | 4.62 ± 0.16 | 25.3 ± 0.9 | 2.79 | 19 ± 0.7 | 2.30 | 43.6 ± 2.65 |  |  | 
11 |  |  | COC1=CC2[C@H]3Cc4ccc(OC)c(OC(=O)CCCC(=O)OCCCCCCOc5no[n+]([O-])c5S(=O)(=O)c5ccccc5)c4[C@@]2(CCN3C)CC1=O (stereo partly drawn) [7Eb, 4-((6-((5-(((4bs,9R)-3,7-Dimethoxy-11-methyl-6-oxo-6,8a,9,10-tetrahydro-5H-9,4b-(epiminoethano)phenanthren-4-yl)oxy)-5-oxopentanoyl)oxy)hexyl)oxy)-3-(phenylsulfonyl)-1,2,5-oxadiazole 2-oxide] | 4.55 ± 0.43 | 17.9 ± 1.26 | >2.79 | 41.5 ± 1.48 | >1.21 | > 50 |  |  | 
12 |  |  | COC1=CC2[C@H]3Cc4ccc(OC)c(OC(=O)c5ccccc5C(=O)OCCCCCCOc5no[n+]([O-])c5S(=O)(=O)c5ccccc5)c4[C@@]2(CCN3C)CC1=O (stereo partly drawn) [7Ec, 4-((6-((2-((((4bs,9R)-3,7-Dimethoxy-11-methyl-6-oxo-6,8a,9,10-tetrahydro-5H-9,4b-(epiminoethano)phenanthren-4-yl)oxy)carbonyl)benzoyl)oxy)hexyl)oxy)-3-(phenylsulfonyl)-1,2,5-oxadiazole 2-oxide] | 4.81 ± 0.18 | 3.94 ± 0.28 | 12.26 | 1.81 ± 0.13 | 26.70 | 48.3 ± 3.78 |  |  | 
13 | 5.12 ± 0.31 | 4.92 ± 0.44 | COc1cccc2c1C(=O)c1c(O)c3c(c(O)c1C2=O)C[C@@](O)(C(=O)CO)C[C@@H]3O[C@H]1C[C@H](N)[C@H](O)[C@H](C)O1 [Adriamycin, adriamycin, reference compound] |  |  |  |  |  |  |  |  | 
14 |  |  | N.N.[Cl][Pt][Cl] [Cisplatin, cisplatin, reference compound] |  |  |  |  |  |  |  |  | 4.97 ± 0.37
